Source: paper PMC10649961, “Novel Mitochondria-Targeted Amphiphilic Aminophosphonium Salts and Lipids Nanoparticles: Synthesis, Antitumor Activity and Toxicity” (Nanomaterials, 2023)
Like-named read-outs stand apart in the source and are kept apart here.

What was measured:
T98G [1] = assay: cells; details: Homo sapiens, 48 h, read-out: Cytotoxic Effects (IC50)
M-HeLa [2] = assay: cells; details: Homo sapiens, 48 h, read-out: Cytotoxic Effects (IC50)
A549 [3] = details: reference normal cell line not marked at the place (ns cells)
SK-OV-3 [4] = assay: cells; details: Homo sapiens, SK-OV-3, 48 h, read-out: Cytotoxic Effects (IC50)
PANC-1 [5] = assay: cells; details: Homo sapiens, PANC-1, 48 h, read-out: Cytotoxic Effects (IC50)
T98G [6] = test system: T98G
[7] = test system: Bacillus cereus ATCC 10702 NCTC 8035; assay: Antimicrobial activity, serial microdilutions, Bc; assay type: cell-based; details: Bacillus cereus; for MIC: Bc, read-out: Minimum Inhibitory Concentration (MIC); for MBC: read-out: Minimum bactericidal and fungicidal concentrations (MBC, MFC)
Description: (§1) The antimicrobial activity of test compounds was determined by serial microdilutions in 96-well plates using Mueller-Hinton broth for bacterial culture and Sabouraud broth for yeast culture. Cultures of Gram-positive bacteria were used in the experiment: Staphylococcus aureus ATCC 6538 P FDA 209P, Bacillus cereus ATCC 10702 NCTC 8035, Enterococcus faecalis ATCC 29212; Gram-negative bacteria: Escherichia coli ATCC 25922, Pseudomonas aeruginosa ATCC 9027; and yeast: Candida albicans ATCC 10231, purchased from the State Collection of Pathogenic Microorganisms and Cell Cultures “SCPM-Obolensk” (Obolensk, Russia). Methicillin-resistant strains of S. aureus (MRSA) were isolated from patients with chronic tonsillitis (MRSA-1) and sinusitis (MRSA-2) in the bacteriological laboratory of the Republican Clinical Hospital (Kazan, Russia). The experiments were carried out in triplicate.

MCF-7 [8] = test system: MCF-7
A549 [9] = assay: cells; details: Homo sapiens, A549, 48 h, read-out: Cytotoxic Effects (IC50)
PC3 [10] = test system: PC3
PANC-1 [11] = test system: PANC-1
DU-145 [12] = test system: DU-145
[13] = test system: Candida albicans ATCC 10231; assay: Antimicrobial activity, serial microdilutions, Ca; assay type: cell-based; design: key to Minimum Inhibitory Concentration (MIC) / Minimum bactericidal and fungicidal concentrations (MBC, MFC): – means non-active; details: for MIC: read-out: Minimum Inhibitory Concentration (MIC)
Description: as §1

MRSA-2 = assay: Antimicrobial activity, serial microdilutions, MRSA-2; assay type: cell-based, S. aureus; details: Staphylococcus aureus; for MIC: read-out: Minimum Inhibitory Concentration (MIC); for MBC: read-out: Minimum bactericidal and fungicidal concentrations (MBC, MFC)
Description: as §1

DU-145 [14] = assay: cells; details: Homo sapiens, DU-145, 48 h, read-out: Cytotoxic Effects (IC50), DU-145, MTT assay, 48 h
Hep G2 [15] = assay: cells; details: Homo sapiens, HepG2, 48 h, read-out: Cytotoxic Effects (IC50)
PC3 [16] = assay: cells; details: Homo sapiens, PC-3, 48 h, read-out: Cytotoxic Effects (IC50), PC3, MTT assay, 48 h
[17] = test system: Staphylococcus aureus ATCC 6538 P FDA 209P; assay: Antimicrobial activity, serial microdilutions, Sa; assay type: cell-based; details: Staphylococcus aureus; for MIC: read-out: Minimum Inhibitory Concentration (MIC); for MBC: read-out: Minimum bactericidal and fungicidal concentrations (MBC, MFC)
Description: as §1

MCF-7 [18] = assay: cells; details: Homo sapiens, MCF7, 48 h, read-out: Cytotoxic Effects (IC50)
HuTu 80 [19] = assay: cells; details: Homo sapiens, HuTu80, 48 h, read-out: Cytotoxic Effects (IC50)
[20] = test system: Enterococcus faecalis ATCC 29212; assay: Antimicrobial activity, serial microdilutions, Ef; assay type: cell-based; details: Enterococcus faecalis; for MIC: ATCC29212, read-out: Minimum Inhibitory Concentration (MIC); for MBC: ATCC29212, read-out: Minimum bactericidal and fungicidal concentrations (MBC, MFC)
Description: as §1

SK-OV-3 [21] = details: reference normal cell line not marked at the place (ns cells)
MRSA-1 = assay: Antimicrobial activity, serial microdilutions, MRSA-1; assay type: cell-based, S. aureus; details: Staphylococcus aureus; for MIC: read-out: Minimum Inhibitory Concentration (MIC); for MBC: read-out: Minimum bactericidal and fungicidal concentrations (MBC, MFC)
Description: as §1

M-HeLa [22] = test system: M-HeLa
HuTu 80 [23] = test system: HuTu 80
Hep G2 [24] = test system: Hep G2
[25] = test system: Escherichia coli ATCC 25922; assay: Antimicrobial activity, serial microdilutions, Ec; assay type: cell-based; details: Escherichia coli; for MIC: ATCC25922, read-out: Minimum Inhibitory Concentration (MIC); for MBC: ATCC25922, read-out: Minimum bactericidal and fungicidal concentrations (MBC, MFC)
Description: as §1

[26] = test system: Pseudomonas aeruginosa ATCC 9027; assay: Antimicrobial activity, serial microdilutions, Pa; assay type: cell-based; design: key to Minimum Inhibitory Concentration (MIC) / Minimum bactericidal and fungicidal concentrations (MBC, MFC): – means non-active; details: for MBC / MIC: Pseudomonas aeruginosa; for MBC: ATCC9027, read-out: Minimum bactericidal and fungicidal concentrations (MBC, MFC); for MIC: ATCC9027, read-out: Minimum Inhibitory Concentration (MIC)
Description: as §1

[27] = calculated relative to the cell line Chang liver (b)
[28] = reference normal cell line not marked at the place (ns cells)
[29] = calculated relative to the cell line WI38 (a)

Row | Structure (SMILES) | IC50 (T98G [1]) [nM] | IC50 (M-HeLa [2]) [nM] | selectivity index (SI) (A549 [3]) | IC50 (SK-OV-3 [4]) [nM] | IC50 (PANC-1 [5]) [nM] | MIC [7] [µM] | MBC [7] [µM] | IC50 (A549 [9]) [nM] | MIC (MRSA-2) [µM] | MBC (MRSA-2) [µM] | IC50 (DU-145 [14]) [nM] | IC50 (Hep G2 [15]) [nM] | IC50 (PC3 [16]) [nM] | MIC [17] [µM] | MBC [17] [µM] | IC50 (MCF-7 [18]) [nM] | IC50 (HuTu 80 [19]) [nM] | MIC [20] [µM] | MBC [20] [µM] | selectivity index (SI) (SK-OV-3 [21]) | also measured
1 | CCCCCCCCC[P+](c1ccccc1)(N(CC)CC)N(CC)CC [5c, Bis(diethylamino)(nonyl)(phenyl)phosphonium iodide] | 2700 ± 300 | 1700 ± 100 | ns (ns—no selectivity) | 14800 ± 1200 | 2800 ± 200 | 3.9 ± 0.3 | 500 ± 48 | 8700 ± 700 | 3.9 ± 0.4 | 62.5 ± 5.4 | 900 ± 70 | 2300 ± 100 | 10000 ± 900 | 3.9 ± 0.3 | 125 ± 10 | 3100 ± 200 | 2800 ± 300 | 31.3 ± 2.2 | 500 ± 48 | ns (ns—no selectivity) | selectivity index (SI) (T98G [6]; [27]): 1.5; selectivity index (SI) (MCF-7 [8]; [27]): 1.3; selectivity index (SI) (PC3 [10]; [28]): ns (ns—no selectivity); selectivity index (SI) (PANC-1 [11]; [27]): 1.5; selectivity index (SI) (DU-145 [12]; [27]): 4.6; Minimum Inhibitory Concentration (MIC) ([13]; Ca): –; Minimum bactericidal and fungicidal concentrations (MBC, MFC) ([13]; Ca): –; MIC (MRSA-1): 3.9 ± 0.3 µM; MBC (MRSA-1): 62.5 ± 5.5 µM; selectivity index (SI) (M-HeLa [22]; [27]): 2.4; selectivity index (SI) (HuTu 80 [23]; [27]): 1.5; selectivity index (SI) (Hep G2 [24]; [27]): 1.8; MIC [25]: 250 ± 19 µM; MBC [25]: 500 ± 48 µM; Minimum Inhibitory Concentration (MIC) [26]: –; MBC [26]: > 500 µM
2 | CCCCCCCCCC[P+](c1ccccc1)(N(CC)CC)N(CC)CC [5d, Decylbis(diethylamino)(phenyl)phosphonium iodide] | 700 ± 50 | 1500 ± 100 | ns (ns—no selectivity) | 10000 ± 800 | 1400 ± 100 | 0.9 ± 0.08 | 500 ± 47 | 8900 ± 700 | 0.9 ± 0.08 | 62.5 ± 5.2 | 450 ± 30 | 1100 ± 90 | 800 ± 60 | 0.9 ± 0.07 | 125 ± 9 | 700 ± 60 | 2500 ± 100 | 15.6 ± 1.2 | 125 ± 9 | ns (ns—no selectivity) | selectivity index (SI) (T98G [6]; [27]): 1.9; selectivity index (SI) (MCF-7 [8]; [27]): 1.9; selectivity index (SI) (PC3 [10]; [27]): 1.6; selectivity index (SI) (PANC-1 [11]; [28]): ns (ns—no selectivity); selectivity index (SI) (DU-145 [12]; [27]): 2.9; Minimum bactericidal and fungicidal concentrations (MBC, MFC) ([13]; Ca): –; MIC ([13]; Candida albicans, ATCC10231): 250 ± 21 µM; MIC (MRSA-1): 0.9 ± 0.08 µM; MBC (MRSA-1): 125 ± 11 µM; selectivity index (SI) (M-HeLa [22]; [28]): ns (ns—no selectivity); selectivity index (SI) (HuTu 80 [23]; [28]): ns (ns—no selectivity); selectivity index (SI) (Hep G2 [24]; [27]): 1.2; MIC [25]: 62.5 ± 5.4 µM; MBC [25]: 62.5 ± 5.3 µM; MIC [26]: 500 ± 48 µM; MBC [26]: 500 ± 47 µM
3 | CCCCCCCCCC[P+](c1ccccc1)(c1ccccc1)N(CC)CC [6d, Decyl(diethylamino)diphenylphosphonium iodide] | 600 ± 50 | 240 ± 20 | ns (ns—no selectivity) | 3900 ± 400 | 400 ± 30 | 0.9 ± 0.08 | 250 ± 21 | 8200 ± 700 | 0.5 ± 0.03 | 0.9 ± 0.08 | 430 ± 30 | 1300 ± 100 | 1400 ± 100 | 0.9 ± 0.08 | 62.5 ± 5.4 | 1600 ± 100 | 350 ± 20 | 3.9 ± 0.3 | 250 ± 19 | ns (ns—no selectivity) | selectivity index (SI) (T98G [6]; [28]): ns (ns—no selectivity); selectivity index (SI) (MCF-7 [8]; [28]): ns (ns—no selectivity); selectivity index (SI) (PC3 [10]; [28]): ns (ns—no selectivity); selectivity index (SI) (PANC-1 [11]; [29]): 1.0; selectivity index (SI) (DU-145 [12]; [29]): 1.0; MIC ([13]; Candida albicans, ATCC10231): 62.5 ± 5.4 µM; MBC ([13]; Candida albicans, ATCC10231, read-out: Minimum bactericidal and fungicidal concentrations (MBC, MFC)): 250 ± 19 µM; MIC (MRSA-1): 0.5 ± 0.03 µM; MBC (MRSA-1): 0.9 ± 0.07 µM; selectivity index (SI) (M-HeLa [22]; [29]): 1.6; selectivity index (SI) (HuTu 80 [23]; [29]): 1.1; selectivity index (SI) (Hep G2 [24]; [28]): ns (ns—no selectivity); MIC [25]: 62.5 ± 5.3 µM; MBC [25]: 62.5 ± 5.5 µM; MIC [26]: 125 ± 10 µM; MBC [26]: 125 ± 9 µM
